Data taken from ChEMBL document CHEMBL3881526, “Selective androgen receptor modulators and method of use thereof” (2007).
Calls of active or inactive are those of the source. No cut-off for these calls is given here.

Legend:
Rattus norvegicus [1] = assay: Anabolic activity in ORX Sprague-Dawley rat assessed as restoration of levator ani muscle weight at 0.1 to 1 ug/day delivered at constant rate for 14 days via subcutaneous osmotic pumps; type: functional
Rattus norvegicus [2] = assay: Androgenic activity in ORX Sprague-Dawley rat assessed as restoration of prostate weight at 1000 ug/day delivered at constant rate for 14 days via subcutaneous osmotic pumps; type: functional, tissue-based
[3] = Plasma clearance in beagle dog at 3 mg/kg, iv after 72 hrs by HPLC analysis; type: ADME, organism-based, Canis lupus familiaris
[4] = Oral bioavailability in beagle dog at 10 mg/kg administered via solution after 72 hrs by HPLC analysis; type: ADME, organism-based, Canis lupus familiaris; details: in vivo
Rattus norvegicus [5] = assay: Androgenic activity in ORX Sprague-Dawley rat assessed as restoration of seminal vesicles weight at 1000 ug/day delivered at constant rate for 14 days via subcutaneous osmotic pumps; type: functional, tissue-based
[6] = Oral bioavailability in beagle dog at 10 mg/kg administered via capsule after 72 hrs by HPLC analysis; type: ADME, organism-based, Canis lupus familiaris; details: in vivo
Rattus norvegicus [7] = assay: Effect on serum LH in ORX Sprague-Dawley rat at 0.3 mg/day delivered at constant rate for 14 days via subcutaneous osmotic pumps; type: ADME; details: sc, 336 h
Rattus norvegicus [8] = assay: Androgenic activity in ORX Sprague-Dawley rat assessed as restoration of seminal vesicles weight at 0.1 to 1 ug/day delivered at constant rate for 14 days via subcutaneous osmotic pumps; type: functional
Rattus norvegicus [9] = assay: Effect on serum FSH in ORX Sprague-Dawley rat at 0.3 mg/day delivered at constant rate for 14 days via subcutaneous osmotic pumps; type: ADME; details: sc, 336 h
Rattus norvegicus [10] = assay: Anabolic activity in ORX Sprague-Dawley rat assessed as restoration of levator ani muscle weight at 1000 ug/day delivered at constant rate for 14 days via subcutaneous osmotic pumps; type: functional, tissue-based
Rattus norvegicus [11] = assay: Androgenic activity in ORX Sprague-Dawley rat assessed as restoration of prostate weight at 0.1 to 1 ug/day delivered at constant rate for 14 days via subcutaneous osmotic pumps; type: functional
[12] = Terminal half life in beagle dog at 3 mg/kg, iv after 72 hrs by HPLC analysis; type: ADME, organism-based, Canis lupus familiaris; details: in vivo, read-out: beta t1/2 (converted)
Bone marrow cell = assay: Induction of differentiation of rat primary bone marrow cells toward osteoblast lineage assessed as ALP activity at 1 uM by spectrophotometric analysis; type: functional, cell-based

| SMILES | Activity (Rattus norvegicus [1]) | Activity (Rattus norvegicus [2]) | clearance [3] [mL/min/kg] | bioavailability [4] [%] | Activity (Rattus norvegicus [5]) | bioavailability [6] [%] | Activity (Rattus norvegicus [7]) | Activity (Rattus norvegicus [8]) | Activity (Rattus norvegicus [9]) | Activity (Rattus norvegicus [10]) | Activity (Rattus norvegicus [11]) | half-life [12] [h] | Activity (Bone marrow cell) |
| --- | --- | --- | --- | --- | --- | --- | --- | --- | --- | --- | --- | --- | --- |
| CC(=O)Nc1ccc(OC[C@](C)(O)C(=O)Nc2ccc([N+](=O)[O-])c(C(F)(F)F)c2)cc1 | Dose-dependent effect | Active | 4.4 | 38 | Active | 19 | Non-Toxic | Dose-dependent effect | Non-Toxic | Active | Dose-dependent effect | 4 | – |
| C[C@]12CCC(=O)C[C@@H]1CC[C@@H]1[C@@H]2CC[C@]2(C)[C@@H](O)CC[C@@H]12 | – | – | – | – | – | – | – | – | – | – | – | – | Active |
| C[C@](O)(COc1ccc(I)cc1)C(=O)Nc1ccc([N+](=O)[O-])c(C(F)(F)F)c1 | Active | – | – | – | – | – | – | <40% | – | – | <40% | – | – |
| C[C@](O)(COc1ccc(Br)cc1)C(=O)Nc1ccc([N+](=O)[O-])c(C(F)(F)F)c1 | Active | – | – | – | – | – | – | <40% | – | – | <40% | – | – |
